Results: publication PMC7366380, “Discovery of a Potent and Selective Covalent Inhibitor and Activity-Based Probe for the Deubiquitylating Enzyme UCHL1, with Antifibrotic Activity” (Journal of the American Chemical Society, 2020)
“And” between values parts separate entries of the source, which are not always exact repeats. Equal entries are not always repeated.

Experiments:
Assay in all cases: Quantitative chemical proteomic profiling of ABP 2 in HEK293 cells: other DUBs and proteins across the proteome
[1] = molecular target: T1, DUBs and other proteins in HEK293 cells (Homo sapiens, UniProt Q9Y4E8); settings: USP15, listed as ABP 2
T1 sequence (Q9Y4E8 1-981): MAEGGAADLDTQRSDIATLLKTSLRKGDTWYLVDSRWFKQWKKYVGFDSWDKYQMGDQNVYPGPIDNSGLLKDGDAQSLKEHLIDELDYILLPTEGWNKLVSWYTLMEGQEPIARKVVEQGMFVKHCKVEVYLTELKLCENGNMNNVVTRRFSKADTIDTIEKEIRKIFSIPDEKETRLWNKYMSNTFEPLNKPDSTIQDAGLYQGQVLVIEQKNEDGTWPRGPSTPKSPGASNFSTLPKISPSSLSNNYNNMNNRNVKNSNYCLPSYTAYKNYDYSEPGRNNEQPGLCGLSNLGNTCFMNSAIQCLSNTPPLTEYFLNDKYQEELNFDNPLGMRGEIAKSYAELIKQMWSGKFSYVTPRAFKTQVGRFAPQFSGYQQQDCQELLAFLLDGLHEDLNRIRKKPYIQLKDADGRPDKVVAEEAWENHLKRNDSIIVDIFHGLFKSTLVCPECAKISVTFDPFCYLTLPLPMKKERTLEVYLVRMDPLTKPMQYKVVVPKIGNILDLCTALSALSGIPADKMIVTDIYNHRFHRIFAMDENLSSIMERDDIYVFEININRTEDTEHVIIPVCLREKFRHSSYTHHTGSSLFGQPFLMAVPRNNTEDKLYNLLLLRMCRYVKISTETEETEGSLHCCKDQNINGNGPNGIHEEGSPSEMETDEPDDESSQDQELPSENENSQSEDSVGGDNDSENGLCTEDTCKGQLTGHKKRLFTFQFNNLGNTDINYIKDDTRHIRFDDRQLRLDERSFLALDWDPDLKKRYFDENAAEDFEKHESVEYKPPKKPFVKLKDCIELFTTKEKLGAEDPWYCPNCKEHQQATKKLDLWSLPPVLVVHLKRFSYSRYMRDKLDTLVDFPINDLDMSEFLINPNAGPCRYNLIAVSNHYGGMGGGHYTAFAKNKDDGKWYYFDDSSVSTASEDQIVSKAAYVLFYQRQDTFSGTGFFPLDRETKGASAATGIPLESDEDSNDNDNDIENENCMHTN

[2] = molecular target: DUBs and other proteins in HEK293 cells (Homo sapiens, UniProt Q93008); settings: USP9X, listed as ABP 2
Chain of DUBs and other proteins in HEK293 cells (Homo sapiens, UniProt Q93008) (Q93008 whole entry): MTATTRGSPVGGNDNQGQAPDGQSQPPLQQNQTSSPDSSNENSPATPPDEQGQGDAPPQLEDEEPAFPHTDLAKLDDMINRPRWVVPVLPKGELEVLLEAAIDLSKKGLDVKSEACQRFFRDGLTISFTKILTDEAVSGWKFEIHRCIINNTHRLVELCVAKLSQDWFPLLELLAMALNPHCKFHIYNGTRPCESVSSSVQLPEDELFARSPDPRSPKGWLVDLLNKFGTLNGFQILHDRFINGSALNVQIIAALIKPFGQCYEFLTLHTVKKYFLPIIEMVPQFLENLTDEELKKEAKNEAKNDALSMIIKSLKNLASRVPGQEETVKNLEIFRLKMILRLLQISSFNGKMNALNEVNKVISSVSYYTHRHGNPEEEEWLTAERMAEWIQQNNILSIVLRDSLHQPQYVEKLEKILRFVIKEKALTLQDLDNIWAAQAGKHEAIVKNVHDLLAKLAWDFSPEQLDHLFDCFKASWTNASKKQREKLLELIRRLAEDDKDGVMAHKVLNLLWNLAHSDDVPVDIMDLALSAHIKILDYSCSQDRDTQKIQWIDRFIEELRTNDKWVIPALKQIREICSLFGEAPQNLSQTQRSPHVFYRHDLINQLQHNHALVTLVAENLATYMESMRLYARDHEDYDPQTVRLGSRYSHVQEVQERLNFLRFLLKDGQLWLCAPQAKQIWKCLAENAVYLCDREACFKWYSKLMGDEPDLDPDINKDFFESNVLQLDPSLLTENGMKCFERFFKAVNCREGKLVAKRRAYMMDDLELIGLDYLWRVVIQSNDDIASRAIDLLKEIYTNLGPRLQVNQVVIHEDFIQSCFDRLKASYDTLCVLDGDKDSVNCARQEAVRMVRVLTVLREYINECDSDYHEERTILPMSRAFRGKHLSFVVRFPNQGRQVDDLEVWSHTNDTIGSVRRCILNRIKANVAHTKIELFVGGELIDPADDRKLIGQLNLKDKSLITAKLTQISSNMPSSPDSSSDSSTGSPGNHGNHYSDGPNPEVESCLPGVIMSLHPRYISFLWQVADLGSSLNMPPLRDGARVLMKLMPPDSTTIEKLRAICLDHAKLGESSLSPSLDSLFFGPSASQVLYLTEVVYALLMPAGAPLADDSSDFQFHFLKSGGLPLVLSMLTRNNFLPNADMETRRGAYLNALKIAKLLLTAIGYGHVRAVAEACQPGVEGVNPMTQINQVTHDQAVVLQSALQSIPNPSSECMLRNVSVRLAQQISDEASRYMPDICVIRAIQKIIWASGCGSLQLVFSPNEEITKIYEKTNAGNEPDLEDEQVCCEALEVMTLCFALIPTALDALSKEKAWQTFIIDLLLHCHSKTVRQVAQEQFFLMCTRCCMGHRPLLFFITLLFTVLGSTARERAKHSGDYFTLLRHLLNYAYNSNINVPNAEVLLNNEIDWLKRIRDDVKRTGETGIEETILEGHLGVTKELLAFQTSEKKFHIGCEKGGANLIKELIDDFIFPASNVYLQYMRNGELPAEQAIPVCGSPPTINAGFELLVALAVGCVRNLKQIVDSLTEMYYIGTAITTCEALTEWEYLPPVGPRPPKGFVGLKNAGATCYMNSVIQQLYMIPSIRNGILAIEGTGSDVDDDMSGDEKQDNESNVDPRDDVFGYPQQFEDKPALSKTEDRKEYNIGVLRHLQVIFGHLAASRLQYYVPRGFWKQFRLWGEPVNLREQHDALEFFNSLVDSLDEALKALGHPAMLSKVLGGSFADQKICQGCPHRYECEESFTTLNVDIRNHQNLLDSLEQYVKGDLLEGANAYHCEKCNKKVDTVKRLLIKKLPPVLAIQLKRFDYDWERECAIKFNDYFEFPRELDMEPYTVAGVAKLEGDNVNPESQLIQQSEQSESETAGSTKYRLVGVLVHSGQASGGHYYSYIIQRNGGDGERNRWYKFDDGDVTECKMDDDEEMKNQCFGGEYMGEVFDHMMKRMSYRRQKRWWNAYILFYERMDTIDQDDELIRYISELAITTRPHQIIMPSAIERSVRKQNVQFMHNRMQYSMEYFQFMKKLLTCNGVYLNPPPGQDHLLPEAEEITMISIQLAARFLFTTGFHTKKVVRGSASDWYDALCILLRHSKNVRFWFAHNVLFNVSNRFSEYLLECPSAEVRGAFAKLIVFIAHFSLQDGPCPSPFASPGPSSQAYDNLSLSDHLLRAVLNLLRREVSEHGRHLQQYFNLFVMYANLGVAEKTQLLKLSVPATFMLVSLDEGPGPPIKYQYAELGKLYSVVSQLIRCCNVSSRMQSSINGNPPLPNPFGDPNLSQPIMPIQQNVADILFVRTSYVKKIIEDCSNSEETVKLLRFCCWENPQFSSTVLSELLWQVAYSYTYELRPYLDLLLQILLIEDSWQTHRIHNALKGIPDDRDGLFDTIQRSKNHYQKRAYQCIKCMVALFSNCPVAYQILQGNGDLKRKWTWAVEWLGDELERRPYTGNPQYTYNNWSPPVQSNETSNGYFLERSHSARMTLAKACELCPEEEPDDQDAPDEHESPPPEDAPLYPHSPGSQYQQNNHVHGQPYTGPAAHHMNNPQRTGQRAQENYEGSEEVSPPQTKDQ

[3] = molecular target: DUBs and other proteins in HEK293 cells (Homo sapiens, UniProt Q7L5N1); settings: COPS6, listed as ABP 2
Chain of DUBs and other proteins in HEK293 cells (Homo sapiens, UniProt Q7L5N1) (Q7L5N1 whole entry): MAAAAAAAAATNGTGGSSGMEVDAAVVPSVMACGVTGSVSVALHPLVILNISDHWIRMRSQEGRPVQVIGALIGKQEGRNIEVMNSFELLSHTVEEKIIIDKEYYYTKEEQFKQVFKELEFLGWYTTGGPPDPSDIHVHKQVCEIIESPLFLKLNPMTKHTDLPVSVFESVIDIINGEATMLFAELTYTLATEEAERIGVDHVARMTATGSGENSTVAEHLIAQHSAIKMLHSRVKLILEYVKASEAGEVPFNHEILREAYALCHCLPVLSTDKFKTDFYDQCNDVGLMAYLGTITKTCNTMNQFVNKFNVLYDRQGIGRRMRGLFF

[4] = molecular target: T2, DUBs and other proteins in HEK293 cells (Homo sapiens, UniProt Q53GS9); settings: USP39
T2 sequence (Q53GS9 1-565): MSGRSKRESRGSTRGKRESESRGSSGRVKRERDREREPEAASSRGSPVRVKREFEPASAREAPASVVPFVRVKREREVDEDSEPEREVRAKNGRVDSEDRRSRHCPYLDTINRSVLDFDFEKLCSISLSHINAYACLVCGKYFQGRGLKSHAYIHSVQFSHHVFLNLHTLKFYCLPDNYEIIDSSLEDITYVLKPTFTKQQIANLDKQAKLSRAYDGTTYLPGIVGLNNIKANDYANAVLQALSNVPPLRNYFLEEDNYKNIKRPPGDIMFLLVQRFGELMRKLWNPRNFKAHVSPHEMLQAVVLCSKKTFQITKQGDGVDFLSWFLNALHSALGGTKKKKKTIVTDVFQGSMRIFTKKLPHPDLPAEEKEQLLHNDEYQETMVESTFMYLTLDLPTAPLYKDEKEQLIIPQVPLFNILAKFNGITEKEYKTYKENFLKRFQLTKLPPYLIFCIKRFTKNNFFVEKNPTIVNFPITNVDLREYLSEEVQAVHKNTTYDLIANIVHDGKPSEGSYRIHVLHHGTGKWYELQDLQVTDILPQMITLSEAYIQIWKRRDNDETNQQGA

[5] = molecular target: DUBs and other proteins in HEK293 cells (Homo sapiens, UniProt P51784); settings: USP11, listed as ABP 2
Chain of DUBs and other proteins in HEK293 cells (Homo sapiens, UniProt P51784) (P51784 whole entry): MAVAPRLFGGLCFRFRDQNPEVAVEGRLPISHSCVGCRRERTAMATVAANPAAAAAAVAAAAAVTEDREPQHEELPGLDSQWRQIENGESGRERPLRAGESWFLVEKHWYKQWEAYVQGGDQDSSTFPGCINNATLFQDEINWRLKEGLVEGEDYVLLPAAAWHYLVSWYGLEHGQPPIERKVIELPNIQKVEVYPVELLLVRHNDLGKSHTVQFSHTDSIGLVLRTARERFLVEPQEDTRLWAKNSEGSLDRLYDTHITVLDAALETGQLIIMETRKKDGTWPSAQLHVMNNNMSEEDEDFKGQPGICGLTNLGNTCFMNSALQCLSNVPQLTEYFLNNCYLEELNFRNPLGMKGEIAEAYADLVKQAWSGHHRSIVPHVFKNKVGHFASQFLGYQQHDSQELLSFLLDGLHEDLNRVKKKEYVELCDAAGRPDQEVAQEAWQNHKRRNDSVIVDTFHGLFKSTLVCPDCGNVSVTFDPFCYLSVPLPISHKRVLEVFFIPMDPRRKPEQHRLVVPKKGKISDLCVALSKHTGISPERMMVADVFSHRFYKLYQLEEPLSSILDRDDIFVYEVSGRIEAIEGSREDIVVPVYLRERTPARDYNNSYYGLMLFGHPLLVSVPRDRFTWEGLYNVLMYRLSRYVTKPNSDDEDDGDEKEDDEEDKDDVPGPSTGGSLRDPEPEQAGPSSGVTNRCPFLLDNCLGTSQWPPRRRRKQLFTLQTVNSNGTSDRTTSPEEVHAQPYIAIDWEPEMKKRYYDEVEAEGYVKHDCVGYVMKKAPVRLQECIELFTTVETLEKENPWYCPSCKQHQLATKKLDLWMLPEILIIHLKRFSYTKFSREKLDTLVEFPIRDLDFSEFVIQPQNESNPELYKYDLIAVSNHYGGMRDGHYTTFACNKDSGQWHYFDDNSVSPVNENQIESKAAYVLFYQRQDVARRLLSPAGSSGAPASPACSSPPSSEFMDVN

[6] = 200 nM, 180 min, replicates A,C

- Log2 reporter intensity values (Log2FC, DMSO substract) ([1]; 2 nM, 60 min, replicates A-C): 0.1138 and 0.004511 and -0.04471
- Log2 reporter intensity values (Log2FC, DMSO substract) ([1]; 20 nM, 10 min, replicates B,C): 0.2038 and 0.1797
- Log2 reporter intensity values (Log2FC, DMSO substract) ([1]; 20 nM, 60 min, replicates A-C): 0.04003 and 0.2301 and -0.05461
- Log2 reporter intensity values (Log2FC, DMSO substract) ([1]; 20 nM, 180 min, replicates A-C): -0.06212 and 0.248 and 0.23
- Log2 reporter intensity values (Log2FC, DMSO substract) ([1]; 200 nM, 10 min, replicates B,C): -0.05955 and -0.05362
- Log2 reporter intensity values (Log2FC, DMSO substract) ([1]; 200 nM, 60 min, replicates A-C): 0.07483 and 0.06943 and 0.1943
- Log2 reporter intensity values (Log2FC, DMSO substract) [1, 6]: 0.004999 and 0.2331
- Log2 reporter intensity values (Log2FC, DMSO substract) ([2]; 2 nM, 60 min, replicates A-C): 0.06074 and 0.05768 and -0.1222
- Log2 reporter intensity values (Log2FC, DMSO substract) ([2]; 20 nM, 10 min, replicates B,C): 0.0266 and 0.08583
- Log2 reporter intensity values (Log2FC, DMSO substract) ([2]; 20 nM, 60 min, replicates A-C): -0.07107 and -0.1083 and 0.02034
- Log2 reporter intensity values (Log2FC, DMSO substract) ([2]; 20 nM, 180 min, replicates A-C): -0.3167 and 0.0151 and 0.03374
- Log2 reporter intensity values (Log2FC, DMSO substract) ([2]; 200 nM, 10 min, replicates B,C): 0.03305 and -0.1026
- Log2 reporter intensity values (Log2FC, DMSO substract) ([2]; 200 nM, 60 min, replicates A-C): 0.09885 and 0.2045 and -0.1344
- Log2 reporter intensity values (Log2FC, DMSO substract) [2, 6]: 0.109 and 0.1534
- Log2 reporter intensity values (Log2FC, DMSO substract) ([3]; 2 nM, 60 min, replicates A-C): -0.04023 and 0.308
- Log2 reporter intensity values (Log2FC, DMSO substract) ([3]; 20 nM, 10 min, replicates B,C): -0.278 and 0.05496
- Log2 reporter intensity values (Log2FC, DMSO substract) ([3]; 20 nM, 60 min, replicates A-C): -0.132 and -0.1593 and 0.09464
- Log2 reporter intensity values (Log2FC, DMSO substract) ([3]; 20 nM, 180 min, replicates A-C): -0.02381 and 0.4095 and -0.1139
- Log2 reporter intensity values (Log2FC, DMSO substract) ([3]; 200 nM, 10 min, replicates B,C): 0.1379 and -0.08033
- Log2 reporter intensity values (Log2FC, DMSO substract) ([3]; 200 nM, 60 min, replicates A-C): 0.1575 and 0.03437 and 0.12
- Log2 reporter intensity values (Log2FC, DMSO substract) [3, 6]: 0.2559 and 0.1548
- Log2 reporter intensity values (Log2FC, DMSO substract) ([4]; 2 nM, 60 min, replicates A-C, listed as ABP 2): 0.1489 and -0.6669
- Log2 reporter intensity values (Log2FC, DMSO substract) ([4]; 20 nM, 10 min, replicates B,C): 0.2437
- Log2 reporter intensity values (Log2FC, DMSO substract) ([4]; 20 nM, 60 min, replicates A-C, listed as ABP 2): 0.1765 and 0.5295
- Log2 reporter intensity values (Log2FC, DMSO substract) ([4]; 20 nM, 180 min, replicates A-C, listed as ABP 2): 0.1037 and 0.2866
- Log2 reporter intensity values (Log2FC, DMSO substract) ([4]; 200 nM, 10 min, replicates B,C): 0.594
- Log2 reporter intensity values (Log2FC, DMSO substract) ([4]; 200 nM, 60 min, replicates A-C, listed as ABP 2): 0.3986 and 0.5245
- Log2 reporter intensity values (Log2FC, DMSO substract) [4, 6]: 0.3314
- Log2 reporter intensity values (Log2FC, DMSO substract) ([5]; 2 nM, 60 min, replicates A-C): 0.1233 and -0.3054 and -0.2167
- Log2 reporter intensity values (Log2FC, DMSO substract) ([5]; 20 nM, 10 min, replicates B,C): -0.09443 and -0.2626
- Log2 reporter intensity values (Log2FC, DMSO substract) ([5]; 20 nM, 60 min, replicates A-C): -0.4096 and 0.07333 and 0.009688
- Log2 reporter intensity values (Log2FC, DMSO substract) ([5]; 20 nM, 180 min, replicates A-C): -0.127 and -0.3984 and -0.1331
- Log2 reporter intensity values (Log2FC, DMSO substract) ([5]; 200 nM, 10 min, replicates B,C): 0.008113 and -0.08322
- Log2 reporter intensity values (Log2FC, DMSO substract) ([5]; 200 nM, 60 min, replicates A-C): 0.1655 and -0.03212 and -0.2868
- Log2 reporter intensity values (Log2FC, DMSO substract) [5, 6]: 0.2311 and 0.03651
SMILES: C#Cc1cnc2[nH]cc(-c3cccc4c3CCN4C(=O)[C@@H]3CCCN3C#N)c2c1 [Compound 2]
